{"source": "patent US11135214B2", "about": "“Methods for enhancing the bio availability and exposure of a voltage-gated potassium channel opener” (priority 2018, dated 2021)", "key": {"[1]": {"tested_on": "cortical excitability", "test": "TMS crossover study, TMS-evoked EEG potentials (TEPs)", "format": "in vivo, human", "details": "for N45 vs pre-dose: 4 h (p=0.03)", "protocol": "All 20 subjects underwent TMS-EMG and TMS-EEG sessions prior to dosing on Days 1 and 7 and at 2 and 4 h after dosing. […] For the 6 h timepoint, RMT was performed for 16 subjects, and AMT, EEG resting state, and TMS-EEG was performed for 8 subjects.\nCompound A-induced modulation of PD markers was evaluated as an effect of time (comparisons of 2, 4, and 6 h post-dose vs. pre-dose) and of concentration (using the post-dose measure taken during highest drug exposure vs. baseline).\nTMS-evoked EEG potentials (TEPs) were calculated by averaging artefact-free EEG trials in the different experimental conditions (Table 17).\nThe following TEP components (P=positive, N=negative) in accordance with the literature were studied, value in parenthesis is the time of interest (TOI): P25 (15-35 ms), N45 (35-70 ms), P70 (70-80 ms), N100 (80-145 ms), and P180 (145-230 ms). TOIs were chosen on the basis of the grand-averaged TEPs and kept identical during the analysis of pre-dose and post-dose measurements and across conditions. To analyze drug-induced modulation of TEPs, we selected a region of interest (ROI) that was composed of 27 channels over and around the stimulation site (left M1) and the corresponding contralateral site (‘FC1’, ‘FC3’, ‘FC5’, ‘C1’, ‘C3’, ‘C5’, ‘CP1’, ‘CP3’, ‘CP5’, ‘P1’, ‘P3’, ‘P5’, ‘Cz’, ‘CPz’, ‘Pz’, ‘FC2’, ‘FC4’, ‘FC6’, ‘C2’, ‘C4’, ‘C6’, ‘CP2’, ‘CP4’, ‘CP6’, ‘P2’, ‘P4’, ‘P6’).\nTo analyze significance of TEP amplitude modulations induced by Compound A, multiple dependent sample t-test comparisons (post-dose vs. pre-dose) were applied for each TOI in all the electrodes within the indicated ROI. To correct for multiple comparisons (i.e., electrodes, timepoints), we conducted a non-parametric cluster-based permutation analysis as implemented in FieldTrip."}, "[2]": {"tested_on": "cortical excitability", "test": "TMS crossover study, global mean field power (GMFP)", "format": "in vivo, human", "details": "20 mg, pre-dose vs post-dose (FIG. 12)", "excerpt": "Additional measures of cortical excitability including global mean field power were similarly impacted."}, "[3]": {"test": "Open-label randomized two-period fed/fasted crossover study, plasma PK", "details": "human, in vivo", "excerpt": "The study consisted of two Treatment Periods, Period 1 and Period 2. Each Treatment Period consisted of 7 days, with the dosing of Compound A occurring on Day 1. The two treatment periods were separated by a washout period of 10 days. The subjects were randomized into two groups. During Treatment Period 1, one group received an oral dose of Compound A while fasted and the other group received an oral dose of Compound A when fed. The group which fasted in Treatment Period 1 was fed in Treatment Period 2 and vice versa.\nOn Day 1 of each Treatment Period, each subject orally received 20 mg of Compound A (4 capsules with 5 mg of Compound A in each capsule).\nDuring the fed period, following an overnight fast of at least 10 hours, a standard high fat, high calorie breakfast was given as per FDA guidance; the breakfast was given 30 minutes prior to the scheduled dosing time, and was completed 10 minutes before dosing. A representative breakfast included 2 slices of buttered toast, 2 fried eggs, 2 strips of bacon, 4 oz. of hash brown potatoes, and 8 oz. of whole milk.\nDuring the fasted period, dosing occurred after an overnight fast of at least 10 hours. No food was allowed for 4 hours post-dose in either the fed or fasted period. Water was allowed as desired except for one hour before and after dosing.\nFor all subjects, blood samples for the determination of Compound A plasma concentration were collected at dosing (0.0 hours (time zero)) and at 0.5, 1.0, 1.5, 2.0, 3.0, 4.0, 6.0, 8.0, 12.0, 24.0, 32.0, 48.0 and 144.0 hours post-dose."}}, "data": [{"smiles": "Cc1cc(N2CCc3cc(F)ccc3C2)cc(C)c1NC(=O)CC(C)(C)C", "note": "[Compound A, N-[4-(6-fluoro-3,4-dihydro-1H-isoquinolin-2-yl)-2,6-dimethylphenyl]-3,3-dimethylbutanamide]", "values": [{"measurement": "Modulation of TEPs, N45", "setting": "[1]; 2 h after dosing vs pre-dose", "result": "Not significant"}, {"measurement": "Modulation of TEPs, P180", "setting": "[1]; 2 h after dosing vs pre-dose", "result": "Not significant"}, {"measurement": "N15-P25 complex vs pre-dose", "setting": "[1]; all available subjects, 2 h (p=0.006) and 4 h (p=0.01)", "result": "decreased"}, {"measurement": "P180 vs pre-dose", "setting": "[1]; all available subjects, 4 h (p=0.02)", "result": "significantly suppressed"}, {"measurement": "N45 vs pre-dose", "setting": "[1]; all available subjects", "result": "significantly suppressed"}, {"measurement": "TEP amplitude P180", "setting": "[1]; concentration analysis N=16, highest plasma concentration, printed 2.2 vs 3.0 μV, p<0.01", "result": 2.2, "unit": "μV"}, {"measurement": "peak-to-peak amplitude of early complex N15-P25 (15 to 35 ms)", "setting": "[1]; concentration analysis N=16, highest plasma concentration, printed 4.5 vs 6.0 μV, p<0.05", "result": 4.5, "unit": "μV"}, {"measurement": "TEP amplitude N45", "setting": "[1]; concentration analysis N=16, highest plasma concentration, printed −2.3 vs −3.0 μV, p<0.01", "result": "−2.3", "unit": "μV"}, {"measurement": "N15-P25 complex vs pre-dose", "setting": "[1]; subjects with drug exposure, 2 h (p=0.008) and 4 h (p=0.02)", "result": "decreased"}, {"measurement": "P180 vs pre-dose", "setting": "[1]; subjects with drug exposure, 4 h (p=0.004)", "result": "significantly suppressed"}, {"measurement": "N45 vs pre-dose", "setting": "[1]; subjects with drug exposure", "result": "significantly suppressed"}, {"measurement": "N100 vs pre-dose", "setting": "[1]; subjects with drug exposure, 4 h (p=0.04)", "result": "significantly suppressed"}, {"measurement": "global mean field power (GMFP)", "setting": "[2]", "result": "reduction of cortical excitability over time"}, {"measurement": "concentration at 3 h", "setting": "[3]; both sexes, fed, 20 mg oral, 3.0 h, individual subjects, read-out: Compound A Concentration", "result": 104, "unit": "ng/mL"}, {"measurement": "Cmax", "setting": "[3]; both sexes, fed, 20 mg oral, individual subjects", "result": 104, "unit": "ng/mL"}, {"measurement": "bioavailability and exposure, fed compared to fasted conditions", "setting": "[3]; po, 20 mg", "result": "significantly enhanced"}]}]}
